“And” between values parts separate entries of the source, which are not always exact repeats. Equal entries are not always repeated.
Test system: 777334-354-R2-J4-PDC tumor spheroids with HUVEC/MSC, viability
Experiment: Anticancer human tumor 777334-354-R2-J4-PDC patient-derived pancreatic adenocarcinoma cell line growth inhibition [GQUAD]
Conditions: for viability, T/C: stronger effect = lower value
Description: DNA G-quadruplex Stabilizer Agents in Combinations in Complex Spheroids
A high-throughput screen of multi-cell type tumor spheroids was designed to identify active combinations of DNA G-quadruplex stabilizer agents and targeted small molecules. Complex spheroids include a stromal component modeled by human endothelial cells (HUVEC) and fibroblasts modeled by human mesenchymal stem cells (MSCs). The concentration ranges selected for each drug and investigational agent were based upon clinically achievable concentrations if the clinical Cmax of the agent was known.
Compounds. The drugs and investigational agents: pidnarulex (CX-5461; NSC782164), APTO-253 (NSC789042), BRACO-19 (NSC847499), peposertib (NSC802822), ceralasertib (NSC780249), elimusertib (NSC800525), camonsertib (NSC841442), AZD-1390 (NSC803789), olaparib (NSC753686), talazoparib (NSC767125), ART-558 (NSC835418), sotorasib (NSC818433), MRTX-1133 (NSC836407), SN-38 (NSC673596), topotecan (NSC609699), etoposide (NSC141540), doxorubicin (NSC123127), gemcitabine (NSC613327), 5-fluorouracil (NSC19893), paclitaxel (NSC125973), vemurafenib (NSC761431), panobinostat (NSC761190), R-306465 (JNJ-16241199; NSC773264), adavosertib (NSC754352), TP-3654 (NSC805149), carboplatin (NSC241240), KSQ-4279 (NSC840948), and staurosporine (NSC755774) were obtained from the National Cancer Institute (NCI) Developmental Therapeutics Program Chemical Repository (34). The FDA-approved anticancer drug set is available from the NCI Developmental Therapeutics Program. […] The stock solutions were prepared in dimethyl sulfoxide (DMSO, Sigma-Aldrich, St. Louis, MO, cat. D2650) at 800-fold the tested concentration and stored at -70 degrees C prior to their use. All drugs and investigational agents were tested over a range starting from a high concentration at or near the clinical Cmax and decreasing in half-log increments. If the clinical Cmax for an agent had not been determined, the highest concentration tested was 10 microM.
2.3 Cell Culture. All cells were maintained in an incubator at 37 degrees C and 5% CO2 with 95% humidity. The PDC lines were cultured according to standard operating procedures established by the NCI PDMR. All PDCs were thawed and cultured in Matrigel-coated flasks prepared with a working solution of 1X Ham's F-12 nutrient mix, without supplementation (Invitrogen, cat. 11765054), 100 U/mL penicillin-streptomycin (Invitrogen, cat. 15140122), and 2.5% Matrigel (Corning Inc., cat. 354248) for the first three passages. The 857933-349-R-J2-PDC line was cultured in 6C/Colon 1B media, which includes advanced DMEM/F-12 (Thermo Fisher Scientific, cat. 12634028), 10 mM HEPES (Thermo Fisher Scientific, cat. 15630080), 1X GlutaMAX supplement (Thermo Fisher Scientific, cat. 35050061), 0.1 mg/mL primocin (InvivoGen, cat. ant-pm-2), 10% defined fetal bovine serum, heat inactivated (HyClone Laboratories Inc., cat. SH30070.03HI), 50% L-WRN conditioned media (ATCC, cat. CRL-3276), 1.25 mM N-Acetyl-L-cysteine (Sigma-Aldrich, cat. A9165), 10 mM nicotinamide (Sigma-Aldrich, cat. N0636), 1X B-27 supplement (Thermo Fisher Scientific, cat. 17504044), 1X N-2 supplement (Thermo Fisher Scientific, cat. 17502048), 10 microM Y-27632 dihydrochloride (Tocris Bioscience, cat. 1254), and 50 ng/mL human EGF recombinant protein (Thermo Fisher Scientific, cat. PHG0311). The 485176-168-R4-J1-PDC line was cultured in Panc media, which includes all 6C/Colon 1B media components plus 100 ng/mL human FGF-10 (Thermo Fisher Scientific, cat. 100-26), 500 nM SB-431542 (Selleckchem, cat. S1067), and gastrin (Tocris, cat. 3006).
[…]

[1] = compound alone, run of 03/18/2024
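Further: spheroids exposed to compounds for 7 days before readout.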

COc1cc(C2c3cc4c(cc3C(OC3OC5COC(C)OC5C(O)C3O)C3COC(=O)C23)OCO4)cc(OC)c1O (stereo not given)
viability, T/C (compound 0.0316 µM): 94.6% and 85% and 95.3% | viability, T/C (compound 0.1 µM): 88.4% and 97.9% and 91.6% | viability, T/C (compound 0.316 µM): 88.8% and 89.8% and 94.8% | viability, T/C (compound 1 µM): 71.9% and 74.2% and 72.8% | viability, T/C (compound 3.16 µM): 69.3% and 64% and 61.6% | viability, T/C (compound 10 µM): 41.3% and 38.2% and 35.7% | IC50 (curve of compound): 6.82 µM and 5.69 µM and 5.03 µM

COc1ccc([C@@H](O)c2cc(-c3ncnc4cc(N5CCOCC5)ccc34)c(F)cc2Cl)nn1
viability, T/C (compound 0.0316 µM): 88.9% and 85.9% and 100% | viability, T/C (compound 0.1 µM): 90.6% and 89.8% and 104% | viability, T/C (compound 0.316 µM): 94.2% and 88.9% and 91.9% | viability, T/C (compound 1 µM): 76.1% and 72.6% and 86.3% | viability, T/C (compound 3.16 µM): 55.1% and 55.7% and 51.5% | viability, T/C (compound 10 µM): 30.2% and 26.8% and 30.7% | IC50 (curve of compound): 3.86 µM and 3.82 µM and 3.59 µM

COc1cccc2c1C(=O)c1c(O)c3c(c(O)c1C2=O)CC(O)(C(=O)CO)CC3OC1CC(N)C(O)C(C)O1 (stereo not given)
viability, T/C (compound 0.0316 µM): 95.8% and 98.8% and 102% | viability, T/C (compound 0.1 µM): 86.7% and 89.4% and 89.9% | viability, T/C (compound 0.316 µM): 69% and 68.8% and 73.9% | viability, T/C (compound 1 µM): 42% and 47.4% and 37.8% | viability, T/C (compound 3.16 µM): 22.2% and 23.6% and 27.6% | viability, T/C (compound 10 µM): 12.6% and 13% and 11.9% | IC50 (curve of compound): 0.713 µM and 0.819 µM and 0.733 µM

COc1ncnc(C2CC2)c1-c1ncc2cnn(Cc3ccc(-c4nc(C(F)(F)F)cn4C(C)C)cc3)c2n1
viability, T/C (compound 0.0316 µM): 102% and 98.3% (2×) | viability, T/C (compound 0.1 µM): 96.7% and 90.9% and 106% | viability, T/C (compound 0.316 µM): 103% and 98.9% and 98.6% | viability, T/C (compound 1 µM): 91.9% and 99.5% and 98.8% | viability, T/C (compound 3.16 µM): 102% and 100% and 99.3% | viability, T/C (compound 10 µM): 109% and 111% and 98.8% | IC50 (curve of compound): > 10 µM

Cc1[nH]c2ccc(F)cc2c1-c1nc2c3cccnc3c3ncccc3c2[nH]1
viability, T/C (compound 0.0316 µM): 101% [middle of 12 runs] | viability, T/C (compound 0.1 µM): 98% [middle of 12 runs] | viability, T/C (compound 0.316 µM): 97.4% [middle of 11 runs] | viability, T/C (compound 1 µM): 86.4% [middle of 12 runs] | viability, T/C (compound 3.16 µM): 43.9% [middle of 12 runs] | IC50 [1]: 2.51 µM [middle of 7 runs]

Cc1[nH]c2ccccc2c1CCNCc1ccc(/C=C/C(=O)NO)cc1
viability, T/C (compound 0.000999 µM): 99% and 100% (2×) | viability, T/C (compound 0.00316 µM): 91.5% and 99.1% and 97.5% | viability, T/C (compound 0.00999 µM): 106% and 114% and 102% | viability, T/C (compound 0.0316 µM): 93.5% and 98.6% and 91.6% | viability, T/C (compound 0.0999 µM): 72.8% and 72.4% and 75% | viability, T/C (compound 0.316 µM): 32.1% and 29.1% and 35.9% | IC50 (curve of compound): 0.19 µM and 0.181 µM and 0.208 µM

Cc1cccc(N(C)C(=O)C2C(O)CCN2c2nc(C)cc(C(F)(F)F)c2C#N)c1 (stereo not given)
viability, T/C (compound 0.0316 µM): 102% (2×) and 107% | viability, T/C (compound 0.1 µM): 108% and 104% and 87.8% | viability, T/C (compound 0.316 µM): 99.9% and 101% and 98.9% | viability, T/C (compound 1 µM): 87.3% and 100% and 95% | viability, T/C (compound 3.16 µM): 92.4% and 93.6% and 109% | viability, T/C (compound 10 µM): 96.5% and 85.7% and 94.7% | IC50 (curve of compound): > 10 µM

Cc1cnc(CNC(=O)c2c(=O)c3ccc(N4CCCN(C)CC4)nc3n3c2sc2ccccc23)cn1
viability, T/C (compound 0.0316 µM): 95.7% [middle of 12 runs] | viability, T/C (compound 0.1 µM): 88.5% [middle of 12 runs] | viability, T/C (compound 0.316 µM): 85.2% [middle of 12 runs] | viability, T/C (compound 1 µM): 76% [middle of 12 runs] | viability, T/C (compound 3.16 µM): 68.6% [middle of 12 runs] | viability, T/C (compound 10 µM): 54.9% [middle of 12 runs] | IC50 [1]: > 10 µM and 7.43 µM

Cn1ncnc1[C@H]1c2n[nH]c(=O)c3cc(F)cc(c23)N[C@@H]1c1ccc(F)cc1
viability, T/C (compound 0.000999 µM): 95.4% and 87.7% and 92.6% | viability, T/C (compound 0.00316 µM): 103% and 99.5% and 94.9% | viability, T/C (compound 0.00999 µM): 99% and 100% and 110% | viability, T/C (compound 0.0316 µM): 87.2% and 95.5% and 87.8% | viability, T/C (compound 0.0999 µM): 87.4% and 104% and 112% | viability, T/C (compound 0.316 µM): 97.3% and 83.1% and 102% | IC50 (curve of compound): > 0.316 µM

Nc1ccn(C2OC(CO)C(O)C2(F)F)c(=O)n1 (stereo not given)
viability, T/C (compound 0.0316 µM): 91.5% and 76.4% and 76.8% | viability, T/C (compound 0.1 µM): 73% and 69.4% and 80% | viability, T/C (compound 0.316 µM): 64.9% and 57.5% and 76.6% | viability, T/C (compound 1 µM): 51.7% and 46.7% and 49.9% | viability, T/C (compound 3.16 µM): 41.5% and 36.5% and 39.1% | viability, T/C (compound 10 µM): 32.9% and 28.9% and 31.4% | IC50 (curve of compound): 1.21 µM and 0.707 µM and 1.05 µM

O=C(NO)c1cnc(N2CCN(S(=O)(=O)c3ccc4ccccc4c3)CC2)nc1
viability, T/C (compound 0.0316 µM): 80.7% and 107% and 88.9% | viability, T/C (compound 0.1 µM): 89.8% and 86% and 83.7% | viability, T/C (compound 0.316 µM): 77.1% (2×) and 79.3% | viability, T/C (compound 1 µM): 58% and 59.4% and 44% | viability, T/C (compound 3.16 µM): 11.9% and 9.01% and 3.01% | viability, T/C (compound 10 µM): 0.93% and 0.25% and 0.19% | IC50 (curve of compound): 1.2 µM and 1.07 µM and 0.793 µM

O=C(c1cc(Cc2n[nH]c(=O)c3ccccc23)ccc1F)N1CCN(C(=O)C2CC2)CC1
viability, T/C (compound 0.0316 µM): 92.5% and 109% and 99% | viability, T/C (compound 0.1 µM): 111% and 84% and 105% | viability, T/C (compound 0.316 µM): 96.9% and 103% and 102% | viability, T/C (compound 1 µM): 84.4% and 89.3% and 94.1% | viability, T/C (compound 3.16 µM): 88.8% and 76.5% and 101% | viability, T/C (compound 10 µM): 77.2% and 75.9% and 79.5% | IC50 (curve of compound): > 10 µM

O=c1[nH]cc(F)c(=O)[nH]1
viability, T/C (compound 0.0316 µM): 103% (2×) and 96.5% | viability, T/C (compound 0.1 µM): 103% and 97.9% and 98.6% | viability, T/C (compound 0.316 µM): 104% and 107% and 115% | viability, T/C (compound 1 µM): 75.3% and 73.9% and 78% | viability, T/C (compound 3.16 µM): 69.9% and 72.7% and 71.7% | viability, T/C (compound 10 µM): 63.2% and 65.2% and 59.8% | IC50 (curve of compound): > 10 µM

Reference: PubChem BioAssay AID2060499 (Molecular Pharmacology Branch, DTP, NCI, 2025)
